Test results taken from BindingDB's records for doi:10.1016/j.bmcl.2007.03.076 (Tanabe Research Laboratories Usa, 2007).

Biological target: T1, Oxysterols receptor LXR-beta (Homo sapiens, UniProt P55055)
T1 sequence (P55055 whole entry): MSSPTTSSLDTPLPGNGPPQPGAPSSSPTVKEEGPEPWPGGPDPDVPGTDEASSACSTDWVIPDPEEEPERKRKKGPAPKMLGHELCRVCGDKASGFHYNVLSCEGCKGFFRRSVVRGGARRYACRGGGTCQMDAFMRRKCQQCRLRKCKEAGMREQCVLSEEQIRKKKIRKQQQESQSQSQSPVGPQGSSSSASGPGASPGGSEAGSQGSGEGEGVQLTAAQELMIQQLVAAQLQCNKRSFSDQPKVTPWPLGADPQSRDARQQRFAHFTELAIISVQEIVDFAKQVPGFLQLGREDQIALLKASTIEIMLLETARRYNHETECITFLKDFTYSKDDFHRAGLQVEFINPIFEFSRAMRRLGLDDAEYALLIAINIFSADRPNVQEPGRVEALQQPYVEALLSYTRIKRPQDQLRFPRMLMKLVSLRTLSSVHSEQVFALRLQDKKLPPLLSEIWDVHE
Assay: HTRF Cofactor Peptide Recruitment Assay
Settings: pH 7.5; 22 °C
Protocol: Polyhistidine-tagged human LXR ligand-binding domain was mixed with the test compound, biotin-SRC1 peptide, streptavidin-allophycocyanin, and europium labeled anti-polyhistidine antibody in reaction buffer, and the mixture was incubated in a 384-well assay plate format. Time-resolved fluorescence was measured at 615 and 665 nm on a LJL Analyst plate reader. The ratio of 665/615 was used to calculate EC50 values of test compounds.

CC(C)(C)OC(=O)n1c(-c2ccc3c(c2)CC(NS(=O)(=O)c2ccccc2)C3)cc2ccccc21 (stereo unspecified) [tert-butyl 2-(2-benzenesulfonamido-2,3-dihydro-1H-inden-5-yl)-1H-indole-1-carboxylate]
EC50: 210 nM
